From PMC9816194, “Use of the head-twitch response to investigate the structure–activity relationships of 4-thio-substituted 2,5-dimethoxyphenylalkylamines” (Psychopharmacology, 2022)
Like-named read-outs stand apart in the source and are kept apart here.

What was measured:
rats [1] = tested on: rats; design: method as in Eshleman et al. 2014; Fantegrossi et al. 2005; details: rats trained to discriminate LSD or DMT; ref Eshleman et al. 2014; Fantegrossi et al. 2005; cited from earlier work
male C57BL/6 J mice [2] = test: Head-twitch response (HTR), magnetometer coil recording; assay type: in vivo; details: for HTR Counts (Mean ± SEM): 30 min; for ED50: Mus musculus, 0.5 h, HTR, 30 min recording, male C57BL/6 J mice; for ED50 / effect on HTR counts (in words): IP; for maximum number of head twitches (mean ± SEM): during the 30-min assessment period; for effect on HTR counts (in words): versus vehicle/baseline
Protocol: Male C57BL/6 J mice (Jackson Laboratory, Bar Harbor, ME) were housed in a vivarium at the University of California San Diego (UCSD), which is an AAALAC-approved animal facility that complies with Federal and State requirements for care and treatment of laboratory animals. The mice (6–8 weeks old) were housed in a climate-controlled room with a reversed light-cycle (lights on at 19:00 h, off at 07:00 h) up to 4 animals per cage. Food and water were provided ad libitum, except during behavioral testing which occurred between 10:00 and 18:00 h. All experiments were conducted according to NIH guidelines and were approved by the UCSD animal care committee.
Head movement was recorded using a head-mounted magnet and a magnetometer coil (Halberstadt and Geyer [2013]). Briefly, mice were anesthetized, a small incision was made in the scalp, and a neodymium magnet was attached to the dorsal surface of the cranium using dental cement. Following a 1–2-week recovery period, behavioral experiments were conducted in a well-lit room with at least 7 days between sessions to avoid any carryover effects. Mice were treated with vehicle or test compound and then placed in a glass cylinder surrounded by a magnetometer coil and activity was recorded for 30 min. All test substances were administered IP dissolved in saline using an injection volume of 5 mL/kg. Coil voltage was filtered (5–10 kHz lowpass), digitized (20 kHz sampling rate), and saved to disk using a Powerlab/8SP with LabChart v 7.3.2 (ADInstruments, Colorado Springs, CO). To detect head twitches, events in the recordings were converted into scalograms using a wavelet transform and then the images were classified using a multistage approach combining the deep convolutional neural network (CNN) ResNet-50 with a support vector machine (SVM) algorithm (Halberstadt [2020]). HTR counts were analyzed using a one-way Welch analysis of variance (ANOVA). Post hoc pairwise comparisons were performed using Dunnett’s test. […] Median effective doses (ED50 values) and 95% confidence intervals were calculated using nonlinear regression (Prism ver. 9.0.2, GraphPad Software Inc, San Diego, CA, USA).

human 5-HT2A receptor [3] = target: T1, human 5-HT2A receptor (Homo sapiens, UniProt P28223); design: expressed in transfected cells; host or cells: HEK 293 (transient), membrane preparations; details: read-out: 5-HT2A Ki, [3H]ketanserin, cited from earlier work
monkeys = tested on: monkeys; design: method as in Khorana et al. 2004; Li et al. 2010, 2008; details: ref Khorana et al. 2004, Li et al. 2010, 2008; cited from earlier work
humans = details: cited from earlier work; for Human active dose range: p.o., ref Shulgin and Shulgin 1991, Trachsel et al. 2013
rats [4] = tested on: rats; design: method as in Khorana et al. 2004; Li et al. 2010, 2008; details: ref Khorana et al. 2004, Li et al. 2010, 2008; cited from earlier work
mice = details: ref Fantegrossi et al. 2005, cited from earlier work
human 5-HT2B receptor = target: T2, human 5-HT2B receptor (Homo sapiens, UniProt P41595); test: Agonist activity at the 5-HT2B receptor, FLIPR calcium flux in HEK 293 cells; assay type: cell-based
T2 construct: expressed in transfected cells
Protocol: HEK 293 cells stably expressing the human 5-HT2B receptor were incubated overnight in poly-D-lysine-coated 96-well plates at a density of 50,000 cells per well and 37 °C. Thereafter, the growth medium was removed by snap inversion and 200 μL of no wash dye (FLIPR calcium 6 assay kit; Molecular Devices, Sunnyvale, CA, USA) was added to each well. The plates were incubated for 2 h at 37 °C and then placed into a FLIPR. Fifty microliters of the test drugs diluted in assay buffer was added to each well online and the increase in fluorescence was measured for 51 s. EC50 values were derived from the concentration–response curves using nonlinear regression.

human 5-HT2A receptor [5] = target: T1, human 5-HT2A receptor; test: Agonist activity at the 5-HT2A receptor, FLIPR calcium flux in NIH-3T3 cells; assay type: cell-based; design: expressed in transfected cells
Protocol: NIH-3T3 cells stably expressing the human 5-HT2A receptor were incubated in HEPES-Hank’s Balanced Salt Solution (HBSS) buffer (Gibco, Zug, Switzerland; 70,000 cells/100 μL) for 1 h at 37 °C in poly-D-lysine-coated 96-well plates. Thereafter, 100 μL of dye solution (fluorescence imaging plate reader [FLIPR] calcium 5 assay kit dye solution; Molecular Devices, Sunnyvale, CA, USA) was added to each well and the plates were incubated for 1 h at 37 °C. The plates were then placed into a FLIPR and 25 μL of the test drugs diluted in HEPES-HBSS containing 250 mM probenicid was added to each well online. The increase in fluorescence was measured for 51 s, and EC50 values were derived from the concentration–response curves using nonlinear regression.

human 5-HT2A receptor [6] = target: T1, human 5-HT2A receptor; test: 5-HT2A receptor binding, [3H]ketanserin displacement; design: expressed in transfected cells; host or cells: HEK 293 (transient), membrane preparations
Protocol: (§1) 5-HT receptor binding affinities were assessed as previously described in detail (Luethi et al. [2018]). In brief, membrane preparations of transiently transfected HEK 293 cells were incubated with selective radioligands at concentrations equal to the corresponding Kd and then ligand displacement by the test drugs was measured. The difference between the total binding and the nonspecific binding determined in the presence of selective competitors was defined as specific binding. The following radioligands and competitors, respectively, were used: 0.40 nM [^3H]ketanserin and 10 μM spiperone (serotonin 5-HT2A receptor), 1.4 nM [^3H]mesulergine and 10 μM mianserin (serotonin 5-HT2C receptor). The IC50 values of the radioligand binding assays were determined using nonlinear regression curves for every drug in a one-site model. Ki values corresponding to the dissociation constants were calculated with the Cheng-Prusoff equation.

h5-HT2C receptors = target: T3, h5-HT2C receptors (Homo sapiens, UniProt P28335); test: 5-HT2C receptor binding, [3H]mesulergine displacement
T3 construct: expressed in transfected cells; host or cells: HEK 293 (transient), membrane preparations
T3 sequence (P28335 33-458): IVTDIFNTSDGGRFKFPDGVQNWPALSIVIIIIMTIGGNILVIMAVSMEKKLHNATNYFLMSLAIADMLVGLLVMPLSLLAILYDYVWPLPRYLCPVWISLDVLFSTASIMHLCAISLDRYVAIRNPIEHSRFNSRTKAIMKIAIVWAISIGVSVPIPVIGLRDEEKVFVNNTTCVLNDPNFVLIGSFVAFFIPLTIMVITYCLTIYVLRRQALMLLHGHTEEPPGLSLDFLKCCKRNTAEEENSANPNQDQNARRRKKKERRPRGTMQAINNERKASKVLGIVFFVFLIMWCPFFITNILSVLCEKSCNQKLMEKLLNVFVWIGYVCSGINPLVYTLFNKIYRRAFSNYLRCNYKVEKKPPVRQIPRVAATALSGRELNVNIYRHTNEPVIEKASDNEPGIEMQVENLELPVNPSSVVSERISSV
Protocol: as §1

human 5-HT2A receptor [7] = target: T1, human 5-HT2A receptor; design: expressed in transfected cells; host or cells: HEK 293 (transient); method as in Luethi et al. 2018; details: 5-HT2A calcium flux assays; ref Luethi et al. 2018; cited from earlier work
male C57BL/6 J mice [8] = tested on: male C57BL/6 J mice; design: method as in Halberstadt et al. (2019a); details: HTR, previous experiment using similar methods; ref Halberstadt et al. (2019a); cited from earlier work
[9] = read-out: ED50 µmol/kg (95% CI)

T1 sequence (P28223 whole entry): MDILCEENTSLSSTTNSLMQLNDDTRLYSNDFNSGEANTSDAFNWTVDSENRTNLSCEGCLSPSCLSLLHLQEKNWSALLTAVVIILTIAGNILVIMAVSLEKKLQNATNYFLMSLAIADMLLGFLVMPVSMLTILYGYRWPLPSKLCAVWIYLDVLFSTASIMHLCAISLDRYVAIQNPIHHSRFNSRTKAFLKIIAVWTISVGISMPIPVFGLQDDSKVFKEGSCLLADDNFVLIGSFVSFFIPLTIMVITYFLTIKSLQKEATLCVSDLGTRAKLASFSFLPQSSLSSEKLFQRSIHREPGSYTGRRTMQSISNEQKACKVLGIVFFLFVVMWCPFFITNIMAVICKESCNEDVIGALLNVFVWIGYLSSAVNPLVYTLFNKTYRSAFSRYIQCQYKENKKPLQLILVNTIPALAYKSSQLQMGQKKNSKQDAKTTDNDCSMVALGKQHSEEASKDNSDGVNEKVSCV
T2 sequence (P41595 whole entry): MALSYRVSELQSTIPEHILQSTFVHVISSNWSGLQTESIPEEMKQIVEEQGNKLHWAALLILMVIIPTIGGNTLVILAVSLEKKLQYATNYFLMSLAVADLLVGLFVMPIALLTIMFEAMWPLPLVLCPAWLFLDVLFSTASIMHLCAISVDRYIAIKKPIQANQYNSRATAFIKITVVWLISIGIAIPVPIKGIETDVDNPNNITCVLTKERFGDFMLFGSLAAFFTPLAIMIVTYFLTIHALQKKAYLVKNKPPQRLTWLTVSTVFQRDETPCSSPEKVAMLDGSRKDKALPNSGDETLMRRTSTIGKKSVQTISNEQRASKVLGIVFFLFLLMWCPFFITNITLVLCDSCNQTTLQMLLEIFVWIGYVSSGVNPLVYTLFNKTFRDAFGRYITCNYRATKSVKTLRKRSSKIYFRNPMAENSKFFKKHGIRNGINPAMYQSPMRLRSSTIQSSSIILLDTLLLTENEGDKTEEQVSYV

Compound | substitution for training drug (in words) (rats [1]) | HTR Counts (Mean ± SEM) (male C57BL/6 J mice [2]; 0.1 mg/kg IP) | HTR Counts (Mean ± SEM) (male C57BL/6 J mice [2]; 0.3 mg/kg IP) | HTR Counts (Mean ± SEM) (male C57BL/6 J mice [2]; 1 mg/kg IP) | HTR Counts (Mean ± SEM) (male C57BL/6 J mice [2]; 3 mg/kg IP) | ED50 (male C57BL/6 J mice [2]; [9]) | ED50 (male C57BL/6 J mice [2]; read-out: ED50 mg/kg (95% CI)) | maximum number of head twitches (mean ± SEM) (male C57BL/6 J mice [2]) | Human active dose range (humans) | Ki (human 5-HT2A receptor [3]; ref Luethi et al. (2018)) | HTR Counts (Mean ± SEM) (male C57BL/6 J mice [2]; 10 mg/kg IP) | effect on HTR counts (in words) (male C57BL/6 J mice [2]) | 5-HT2A agonist efficacy (in words) (human 5-HT2A receptor [7]) | also measured
CCSc1cc(OC)c(CCN)cc1OC.Cl [Compound 2C-T-2, 2,5-dimethoxy-4-ethylthiophenethylamine hydrochloride] | partial generalization | 12.2 ± 1.9 | 28.4 ± 4.7 | 65.2 ± 5.9 | 36.8 ± 11.5 | 1.44 µmol/kg | 0.4 mg/kg | 65.2 ± 5.9 | – | – | – | – | – | Ki (human 5-HT2A receptor [3]; ref Rickli et al. (2015)): 9 nM
CCCSc1cc(OC)c(CCN)cc1OC.Cl [Compound 2C-T-7, 2,5-dimethoxy-4-n-propylthiophenethylamine hydrochloride] | partial generalization | 11.8 ± 1.3 | 18.4 ± 3.5 | 70.2 ± 10.6 | 58.6 ± 9.7 | 2.12 µmol/kg | 0.62 mg/kg | 70.2 ± 10.6 | 10 to 30 mg | 5.3 nM | – | – | – | effects in DOM-trained animals (in words) (monkeys): hallucinogen-like effects; effects in DOM-trained animals (in words) (rats [4]): hallucinogen-like effects; HTR after pretreatment with 5-HT2A antagonist M100907 (in words) (mice; mice pretreated with M100907): blocked; induction of HTR (in words) (mice; mice): induce the head-twitch response
COc1cc(SCCF)c(OC)cc1CCN.Cl [Compound 2C-T-21, 2,5-dimethoxy-4-(2-fluoroethylthio)phenethylamine hydrochloride] | – | – | 8.8 ± 2.1 | 19.8 ± 2.7 | 61.8 ± 5.0 | 5.58 µmol/kg | 1.65 mg/kg | – | 8 to 20 mg | – | 72.6 ± 9.4 | – | – | Human potency range (humans; dose range active as psychedelic in humans, ref Shulgin and Shulgin (1991)): 8–12 mg ^[5]; EC50 (human 5-HT2B receptor): 102 ± 24 nM; Emax (human 5-HT2B receptor; HEK293, calcium flux, read-out: h5-HT2B Emax): 32 ± 1.8%; EC50 (human 5-HT2A receptor [5]): 9.7 ± 0.1 nM; Emax (human 5-HT2A receptor [5]; NIH3T3, calcium flux, relative to 5-HT, read-out: h5-HT2A Emax): 69 ± 4.8%; Ki (human 5-HT2A receptor [6]): 27.7 ± 6.2 nM; Ki (h5-HT2C receptors): 72.7 ± 10.6 nM
COc1cc(SCc2ccccc2)c(OC)cc1CCN.Cl [Compound 2C-T-27, 4-benzylthio-2,5-dimethoxyphenethylamine hydrochloride] | – | – | – | – | 9.0 ± 0.8 | 7.3 µmol/kg | 2.48 mg/kg | – | – | 1.6 nM | – | relatively weak | low efficacy partial agonists | HTR Counts (Mean ± SEM) (male C57BL/6 J mice [2]; 1.5 mg/kg IP): 6.0 ± 1.6; HTR Counts (Mean ± SEM) (male C57BL/6 J mice [2]; 6 mg/kg IP): 12.8 ± 2.0; HTR Counts (Mean ± SEM) (male C57BL/6 J mice [2]; 12 mg/kg IP): 10.8 ± 3.6; HTR Counts (Mean ± SEM) (male C57BL/6 J mice [2]; 24 mg/kg IP): 5.4 ± 2.0
COc1cccc(CSc2cc(OC)c(CCN)cc2OC)c1.Cl [Compound 2C-T-33, 2,5-dimethoxy-4-(3-methoxybenzylthio)phenethylamine hydrochloride] | – | – | 8.6 ± 2.2 | 5.0 ± 2.8 | 9.6 ± 1.7 | – | – | – | – | 1.7 nM | 7.8 ± 0.8 | did not produce a significant increase in HTR counts | low efficacy partial agonists | –
COc1cc(OC)c(OC)cc1CC(C)N (centres unmarked) [TMA-2, 2,4,5-trimethoxyamphetamine] | – | – | – | – | – | – | – | – | – | – | – | – | – | ED50 µmol/kg (95% CI) (male C57BL/6 J mice [8]): 12.4 (8.6–17.8) ^[1] µmol/kg; ED50 mg/kg (95% CI) (male C57BL/6 J mice [8]): 2.79 (1.94–4.01) ^[1] mg/kg
